“And” between values parts separate entries of the source, which are not always exact repeats. Identical values can stand only once.
Assays:
human lymphocytes = assay: Inhibition of PHA-stimulated lymphocyte proliferation ([3H]thymidine incorporation); assay type: cell-based; details: PHA-stimulated human lymphocyte proliferation; read-out: Immunosuppressive Effect (IC50 in μM) [B]
Source text: Phytohemagglutinin (phytostigma or “PHA”) induces proliferation of human lymphocytes.

[1] = Cytotoxicity measured by cell proliferation inhibition; assay type: cell-based
[2] = system: Lewis (LEW) heart allografts; assay: Heterotopic heart transplantation in rats; assay type: in vivo, Rat ACI recipients
Experimental: (§1) Heterotopic heart transplantation was performed in rats and mice. In brief, heart transplantation was performed by previously described modified method. Hearts harvested from donors were perfused with chilled saline and immediately transplanted to recipients under full anesthesia. Suture 10-0 in rats and 12-0 in mice (Ethicon; Somerville, N.J.) was used to perform anastomosis of aorta to aorta and pulmonary artery to vena cava. Heartbeat was evaluated daily and the day of complete cessation was considered rejection. Animals that died within three days after transplantation were excluded from the analysis (less than 5%).
Rat ACI (RT1*) recipients of Lewis (LEW; RT1^1) heart allografts were untreated or were treated for 7 days by daily (QDx7) i.p. injections with 20 mg/kg N5. Untreated recipients rejected heart allografts in a mean survival time (MST) of 8.40±0.55 (n=5).

C57BL/6 heart allografts = assay: Heterotopic heart transplantation in mice; assay type: in vivo, Balb/c mice
Experimental: as §1
Mice were also transplanted with heart allografts. In particular, untreated Balb/c (H-2^d) recipients rejected C57BL/6 (H-2^b) heart allografts at a MST of 7.8±0.84 days (n=5). Treatment with 40 mg/kg N5, QDx7, extended heart allograft survival to 13.33±2.52 days, which increased life span 71% (n=3; p<0.03).
Mice heart allografts were treated with 20 mg/kg of N3, QDx7, i.p. In particular, untreated Balb/c (H-2^d) recipients rejected C57BL/6 ([…]) heart allografts at a MST of […] days (n=5). Treatment with 20 mg/kg of N3 (i.e., one-half of dose of N5) extended heart allograft survival to 18.75±3.86 days (n=4; p<0.0005), an increase in lifespan of 140%.

LEW kidney allografts = assay: Orthotopic kidney transplantation in rats; assay type: in vivo, ACI rats
Experimental: Orthotopic kidney transplantation was performed in rats. In particular, the left kidney of donor was perfused through the aorta with heparinized saline (4° C.) and then harvested after the renal artery, renal vein, and ureter were cut off. End-to-end anastomosis of donor and recipient renal arteries and veins were performed using 10-0 nylon suture (Ethicon; Somerville, N.J.). The recipients' native kidneys were removed on the day of transplantation. Animals that died within three days after transplantation were excluded from the analysis (less than 5%).
The effect of N5 (administered in DMSO, 20 mg/kg, i.p. QDx7) on kidney allograft survival was examined. Although untreated ACI recipients acutely rejected LEW kidney allografts at 8.8±0.75 days, a 7-day i.p. daily treatment extended survivals to 26.50±2.12 days, which increased lifespan 200% (n=2; p<0.03).

[3] = system: carrageenan-induced paw edema; assay: Carrageenan-induced paw edema; assay type: in vivo, B6D2F1 mice; details: for Pedis Area: individual mice 1-4; for Pedis Area, Mean: mean of 4 mice
Experimental: Carrageene (1%, 30 μl) was injected i.m. into the pedis of B6D2F1 mice (4 mice/group) to induced edemic inflammation at 0 hours. N3, N5 (i.p. injection) or oral administration of aspirin 500 mg/kg, or topical application of hydrocortisone cream (1%) or Lidex cream (0.05%) to the pedis skins were given at −1, 6, 12 and 24 hours. The control mice received dimethylsulfoxide (the vehicle of ningalins). The pedis areas (in mm^2) were measured at 0, 3, 6, 12, 24, 36 and 48 hours.

SMILES: COc1ccc(CCn2c(C(=O)N(C)C)c(-c3ccc(OC)c(OC)c3)c3c4cc(OC)c(OC)cc4oc(=O)c32)cc1OC [Ningalin N5, 1-(3,4-Dimethoxy-phenyl)-3-[2-(3,4-dimethoxy-phenyl)-ethyl]-7,8-dimethoxy-4-oxo-3,4-dihydro-5-oxa-3-aza-cyclopenta[α]naphthalene-2-carboxylic acid dimethylamide]
- IC50 (human lymphocytes): 0.17 ± 0.01 µM
- IC50 [1]: 17.1 ± 4.6 µM
- MST ± SD days (heart allograft survival) ([2]; ACI recipients of LEW heart, N5 20 mg/kg i.p. QDx7, 20 mg/kg): 18.67±2.52 days and 18.67 ± 2.5 days
- increased life span ([2]; heart allograft, N5 20 mg/kg i.p. QDx7, vs untreated): 122%
- Survival days (individual animals) ([2]; heart, N5 20 mg/kg, 20 mg/kg): 18 days and 19 days and 21 days
- MST ± SD days (heart allograft survival) (C57BL/6 heart allografts; B6 heart to Balb/c, N5 40 mg/kg QDx7, 40 mg/kg): 13.33±2.52 days and 13.35 ± 2.52 days
- increased life span (C57BL/6 heart allografts; heart allograft, N5 40 mg/kg QDx7, vs untreated): 71%
- Survival days (individual animals) (C57BL/6 heart allografts; heart, N5 40 mg/kg, 40 mg/kg): 11 days and 13 days and 16 days
- MST ± SD days (kidney allograft survival) (LEW kidney allografts; ACI recipients of LEW kidney, N5 in DMSO 20 mg/kg i.p. QDx7): 26.50±2.12 days
- increased life span (LEW kidney allografts; kidney allograft, N5 20 mg/kg i.p. QDx7, vs untreated): 200%
- Survival days (individual animals) (LEW kidney allografts; kidney, N5 20 mg/kg, 20 mg/kg): 26 days and 28 days
- Pedis Area ([3]; 0 hr, aspirin 500 mg/kg oral, N3 100 mg/kg i.p., N5 50 mg/kg i.p., hydrocortisone cream 1%, Lidex cream 0.05% topical, given at −1, 6, 12, 24 hours): 100 mm^2
- Pedis Area, Mean ([3]; 0 hr, doses as E35): 100 mm^2
- Pedis Area ([3]; 3 hr, doses as E35): 137.1 mm^2 and 139.2 mm^2 and 143.9 mm^2 and 132 mm^2
- Pedis Area, Mean ([3]; 3 hr, doses as E35): 138.1 mm^2
- Pedis Area ([3]; 6 hr, doses as E35): 138.1 mm^2 and 144.3 mm^2 and 146.9 mm^2 and 145.4 mm^2
- Pedis Area, Mean ([3]; 6 hr, doses as E35): 143.7 mm^2
- Pedis Area ([3]; 12 hr, doses as E35): 125.7 mm^2 and 124.7 mm^2 and 140.8 mm^2 and 141.2 mm^2
- Pedis Area, Mean ([3]; 12 hr, doses as E35): 133.1 mm^2
- Pedis Area ([3]; 24 hr, doses as E35): 125.7 mm^2 and 161.6 mm^2 and 128.6 mm^2 and 142.3 mm^2
- Pedis Area, Mean ([3]; 24 hr, doses as E35): 129.6 mm^2
- Pedis Area ([3]; 36 hr, doses as E35): 120 mm^2 and 118.6 mm^2 and 127.6 mm^2 and 142.3 mm^2
- Pedis Area, Mean ([3]; 36 hr, doses as E35): 127.1 mm^2
- Pedis Area ([3]; 48 hr, doses as E35): 120 mm^2 and 117.5 mm^2 and 130.6 mm^2 and 142.3 mm^2
- Pedis Area, Mean ([3]; 48 hr, doses as E35): 127.6 mm^2
- anti-inflammatory effect (FIG. 3) ([3]; N5 50 mg/kg i.p., N3 100 mg/kg i.p., all drugs: at 12-48 hours): produced an anti-inflammatory effect
